How the values were obtained:
dsDNA oligomer = test: SPR biosensor binding to surface-anchored dsDNA oligomer; conditions: surface-blocked DNA oligomer
Method: The DNA binding ability of curcuminoid ligands and their complexes was evaluated by using a Surface plasmon resonance (SPR) biosensor. The monoexponential nature of binding kinetics for all the compounds is consistent with the presence of a single high-affinity site on DNA (Figure ).
The binding kinetics/affinities of the molecules of interest for DNA were studied according to a previously described biosensor-based method. Briefly, streptavidin was anchored to a carboxylate surface via EDC/NHS chemistry, and 5′-biotinylated dsDNA oligomer (sequence: 3′-[…]-5′) was coupled to surface-blocked streptavidin. Compounds were independently added to the DNA-coated surface at different concentrations, each time following binding kinetics up to equilibrium. PBS buffer was used for both the dissociation and the regeneration steps. Experimental data were fitted to both mono- and biexponential models, and the validity of each model was assessed by a standard F-test procedure. The binding sites on DNA were mapped according to independent competitive binding assays individually using a minor groove binder (GelRed) and a major groove binder (methyl green), respectively. Briefly, GelRed displacement was monitored by comparing the emission spectra of solutions containing different concentrations of curcuminoid-like ligands/complexes (0–100 μM), 20 μM DNA, and GelRed (10 μM) in 10 mM phosphate buffer, pH 7.4. Similarly, methyl green displacement assay was performed by monitoring the absorbance at 630 nm upon addition of candidate competitors (0–100 μM), 100 μM DNA, and methyl green (10 μM) in 50 mM Tris–HCl buffer and 7.5 mM MgSO4, pH 7.5.

p62 = test: Western blot quantification of p62 in MCF7 cells; type: cell-based, human; conditions: 10 μM, 24 h
Method: Since no significant correlation emerged among cytotoxicity, DNA binding affinity, and proteasome inhibition, the effects of the treatment on the expression levels of p62 were evaluated. p62 is a multifunctional binding protein that is involved in signaling pathways of many cellular activities, including autophagy, whose abnormal expression is associated with malignancies, breast cancer in particular. […] This effect was more evident for the free ligand, in agreement with its higher cytotoxicity to breast cancer cells compared with that of the corresponding ruthenium complex (Figure ).
4 Representative autoradiographs (upper panel) and densitometric analyses (lower panel) of p62 levels in MCF7 cells treated with 10 μM of HZPbdcurc and [3]-Cl for 24 h (*p < 0.01 compared with the control; #p < 0.01 compared with [3]-Cl).
Semiquantitative analysis of p62 was performed by Western blotting upon individual 24 h treatments of MCF-7 cells with 10 μM of HZPbdcurc or [Ru(p-cym)(HZPbdcurc)-Cl]-Cl. Treated cells were lysed, and 15 μg of total protein was electrophoresed on 12% SDS-PAGE, then protein bands were electroblotted onto PVDF membranes (Millipore–Milan, Italy). After incubation with anti-p62 monoclonal antibody (Merck Sigma–Milan, Italy), the bands were immunodetected on a ChemiDoc MP imaging system (Bio-Rad - Milan, Italy). […] Western blot results were analyzed using Fiji software.

[1] = test system: HEK293T human embryonic kidney cells; test: MTT cytotoxicity assay, HEK293T cells; type: cell-based; conditions: 72 h exposure, mean ± SD of three experiments
Method: (§1) The stability of [1]-Cl-[4]-Cl was evaluated in aqueous phosphate-buffered solution (PBS, pH 7.4) using UV–visible spectroscopy. […] The cytotoxicity of the compounds was measured according to a standard MTT assay against human breast cancer (MCF7 and MCF7CR) and ovarian cancer (A2780 and A2780cis) cell lines, and also nontumorigenic MCF10A and human embryonic kidney HEK293T cells (Table ).
(§2) All cell lines were grown in a humidified 5% CO2 environment at 37 °C in dedicated media. Growth media comprised minimum essential medium (MEM) supplemented with 10% FBS, 1% sodium pyruvate, antibiotics, and antimycotic agents for MCF7. MCF10A cells were cultured in a DMEM/F12 Ham’s mixture supplemented with 5% equine serum, 20 ng/mL EGF, 10 μg/mL insulin, […], antibiotics, and antimycotics. MCF7-CR cells were grown in minimum essential medium (MEM), 10% FBS supplemented with 0.1 mg/mL cisplatin, sodium pyruvate, antibiotics, and antimycotics. A2780 and A2780cis cells were cultured in RPMI 1640 GlutaMAX, and HEK293T cells were cultured in DMEM GlutaMAX medium containing 10% heat-inactivated FBS and antibiotics. The effect exerted on cell viability by the compounds was determined using the 3-(4,5-dimethylthiazol-2-yl)-2,5-diphenyltetrazolium bromide (MTT) assay. After individual treatments with 0–100 μM of the compound for 72 h, MTT was added to the culture media at a final concentration of 0.5 mg/mL and incubated for 2 h at 37 °C. Cisplatin was used as a positive control. The medium was replaced with 100 μL of DMSO, and after 10 min, the optical density was recorded at 550 nm on a microplate reader. At least six cultures were used for each data point. Chemicals (Merck-Sigma, Milan, Italy) and plasticware (Corning, Milan, Italy) were cell culture grade.

[2] = target: 20S proteasome PGPH (caspase-like) activity (Homo sapiens, UniProt P28072); test: Isolated 20S proteasome, peptidyl glutamyl peptide hydrolase (caspase-like) activity (Z-Leu-Leu-Glu-AMC); type: biochemical; conditions: 0–100 μM, 1 h, 37 °C, pH 8.0
Method: (§3) Proteasome inhibition by the compounds was evaluated with respect to three major activities of the 20S proteasome, namely, chymotrypsin-like, trypsin-like, and caspase-like activities.
(§4) The effect of the compounds on the activity of the isolated 20S proteasome was tested using specific synthetic fluorogenic peptide substrates (Suc-Leu-Leu-Val-Tyr-AMC, Z-Leu-Ser-Thr-Arg-AMC, and Z-Leu-Leu-Glu-AMC for chymotrypsin-like, trypsin-like, and peptidyl glutamyl peptide hydrolase activity, respectively) as reported elsewhere. Briefly, individual mixtures consisting of the compounds (0–100 μM), 1 μg of isolated 20S proteasome, the specific substrate, and 50 mM Tris–HCl pH 8.0 up to a final volume of 100 μL were incubated at 37 °C, and after 1 h, the fluorescence measurements of the hydrolyzed AMC were recorded on a SpectraMax Gemini XPS microplate reader (λexc = 365 nm, λem = 449 nm).

[3] = test system: A2780 human ovarian carcinoma cells; test: MTT cytotoxicity assay, A2780 cells; type: cell-based
Method: as §1, §2

[4] = Solubility in water (qualitative); type: physicochemical
[5] = test system: MCF7-CR cisplatin-resistant breast cancer cells; test: MTT cytotoxicity assay, MCF7CR cells; type: cell-based, human; conditions: 72 h exposure, mean ± SD of three experiments
Method: as §1, §2

[6] = test system: A2780cis cisplatin-resistant ovarian cancer cells; test: MTT cytotoxicity assay, A2780cis cells; type: cell-based, human; conditions: 72 h exposure, mean ± SD of three experiments
Method: as §1, §2

[7] = target: 20S proteasome trypsin-like activity (Homo sapiens, UniProt Q99436); test: Isolated 20S proteasome, trypsin-like activity (Z-Leu-Ser-Thr-Arg-AMC); type: biochemical; conditions: 0–100 μM, 1 h, 37 °C, pH 8.0
Method: as §3, §4

[8] = test system: MCF7 human breast adenocarcinoma cells; test: MTT cytotoxicity assay, MCF7 cells; type: cell-based
Method: as §1, §2

[9] = target: 20S proteasome chymotrypsin-like activity (Homo sapiens, UniProt P28074); test: Isolated 20S proteasome, chymotrypsin-like activity (Suc-Leu-Leu-Val-Tyr-AMC); type: biochemical; conditions: 0–100 μM, 1 h, 37 °C, pH 8.0
Method: as §3, §4

[10] = test system: MCF10A nontumorigenic cells; test: MTT cytotoxicity assay, MCF10A cells; type: cell-based, human; conditions: 72 h exposure, mean ± SD of three experiments
Method: as §1, §2

[11] = MTT, 72 h exposure, mean ± SD of three experiments

In the case of Cc1ccc(C(C)C)cc1.Oc1ccc(/C=C/c2cc(/C=C/c3ccc(O)cc3)n(-c3ccccn3)n2)cc1.[Cl-].[Cl][Ru+] [[3]Cl, [Ru(p-cym)(HZPbdcurc)Cl]Cl], the kass (dsDNA oligomer) is reported as 10281 ± 5155 M^–1s^–1, the kdiss (dsDNA oligomer) is reported as 0.02 ± 0.01 s^–1 and the Kd (dsDNA oligomer; equilibrium dissociation constant) is reported as 2.2 ± 1.5 µM. For the same molecule, the p62 levels (p62) was “an increase in the levels of p62 was observed”, the IC50 [1] was 19 ± 2 µM and the IC50 [2] was greater than 100 µM. The IC50 [3, 11] was 2 ± 0.1 µM, the “SI A2780 HEK293T” value ([3]; selectivity index, values equal IC50 HEK293T / IC50 A2780) was 9.50 and the solubility in water [4] was “partly soluble in H2O”. For the same molecule, the IC50 [5] was 31.9 ± 6 µM, the IC50 [6] was 2.7 ± 0.4 µM and the IC50 [7] was greater than 100 µM. For the same molecule, the IC50 [8, 11] was 23 ± 6 µM, the “SI MCF7 MCF10A” value ([8]; selectivity index, values equal IC50 MCF10A / IC50 MCF7) was 0.68 and the IC50 [9] was greater than 100 µM. It also gave an IC50 [10] of 15.6 ± 8.9 µM.

Source: PMC12153055 (Organometallics, 2025)
